Reference: patent publication US9353094B2, “Substituted quinoxalines as kinase inhibitors” (BOARD OF REGENTS OF THE UNIVERSITY OF NEBRASKA, priority 2010, dated 2016)

The compounds below were run on human pancreatic AsPC1 tumor cell line (assay: Cell growth inhibition assay (alamar blue)). Details: AsPC1, 20 μM, 72 h.
Type: cell-based
Protocol: (§1) The compounds were screened in a growth inhibition assay at 20 μM over a 72 h period in a panel of cancer cell lines (lung-A549; pancreatic-Aspc1; colon-HT29; breast-MDAMB231; prostate-PC3; ovarian-SKOV3 and bone-U2OS) and the results are summarized in Table 2. […] This size effect was also observed with the urea compounds from the secondary amine (6j vs. 6l and 6k vs. 6m).
(§2) Cell Growth Inhibition Assay. Human lung A549, human pancreatic AsPC1, human colorectal HT-29, human breast MDA-MB-231, human prostate PC3, human ovarian SKOV3, and human osteosarcoma U2OS tumor cell lines were cultured in basal media containing 10% FBS and maintained in a 37° C. incubator with 5% CO2. All compounds were screened in 96 well microtiter plate format. In general, each cell line was plated at optimal assay density in 95 μl of propagation media in 96 well plates and incubated overnight. The next day, a standard alamar blue assay was performed (see below) on representative wells of each cell line for a Tz calculation. Subsequently, cells were treated in duplicate with a 5 μl volume of either vehicle only, positive controls etoposide and taxol, or test compounds at 20 μM (highest soluble compound concentration). The treated cells were incubated for 72 h and then assayed for growth by alamar blue assay. Briefly, 10 μl of reagent was added to each well and the plates returned to 37° C. After 3 h, fluorescence at 544ex/590em was measured using a SpectraMax M5 (Molecular Devices) plate reader. Growth is represented as a percentage of the control cells that were treated with vehicle only and % growth inhibition was determined using the NCI algorithm: Tz=number of untreated cells at zero time, C=Number of control cells at 72 h time, and T=number of compound treated cells at 72 h time; 100*([T−Tz]/[C−Tz]).

SMILES	% Growth inhibition at 20 μM
S=C(Nc1ccccc1)Nc1ccc2nc(-c3cccs3)c(-c3cccs3)nc2c1 [6b]	Inactive
S=C(Nc1ccccc1)Nc1ccc2nc(-c3ccccc3)c(-c3ccccc3)nc2c1 [6c]	Inactive
O=[N+]([O-])c1ccc(NC(=S)Nc2ccc3nc(-c4cccs4)c(-c4cccs4)nc3c2)cc1 [6e]	Inactive
O=[N+]([O-])c1ccc(NC(=S)Nc2ccc3nc(-c4ccccc4)c(-c4ccccc4)nc3c2)cc1 [6f]	55.5 ± 25.4%
Cc1nc2ccc(NC(=O)N3CCCC3)cc2nc1C [6g]	Inactive
O=C(Nc1ccc2nc(-c3ccccc3)c(-c3ccccc3)nc2c1)N1CCCC1 [6i]	29.4 ± 9.8%
Cc1nc2ccc(NC(=O)N3CCC(Cc4ccccc4)CC3)cc2nc1C [6j]	Inactive
Cc1nc2ccc(NC(=O)N3CCCCC3)cc2nc1C [6l]	Inactive
O=C(Nc1ccc(F)cc1)Nc1ccc2nc(-c3ccco3)c(-c3ccco3)nc2c1 [7a]	>100%
O=C(Nc1ccc(Cl)cc1)Nc1ccc2nc(-c3ccco3)c(-c3ccco3)nc2c1 [7b]	81.1 ± 2.0%
O=C(Nc1ccc(-c2ccccc2)cc1)Nc1ccc2nc(-c3ccco3)c(-c3ccco3)nc2c1 [7d]	Inactive

These compounds were tested on human ovarian SKOV3 tumor cell line (assay: Cell growth inhibition assay (alamar blue)). Details: SKOV3, 20 μM, 72 h.
Type: cell-based
Protocol: as §1, §2

SMILES	% Growth inhibition at 20 μM
S=C(Nc1ccccc1)Nc1ccc2nc(-c3cccs3)c(-c3cccs3)nc2c1 [6b]	Inactive
S=C(Nc1ccccc1)Nc1ccc2nc(-c3ccccc3)c(-c3ccccc3)nc2c1 [6c]	Inactive
O=[N+]([O-])c1ccc(NC(=S)Nc2ccc3nc(-c4cccs4)c(-c4cccs4)nc3c2)cc1 [6e]	Inactive
O=[N+]([O-])c1ccc(NC(=S)Nc2ccc3nc(-c4ccccc4)c(-c4ccccc4)nc3c2)cc1 [6f]	55.8 ± 30.7%
Cc1nc2ccc(NC(=O)N3CCCC3)cc2nc1C [6g]	Inactive
O=C(Nc1ccc2nc(-c3ccccc3)c(-c3ccccc3)nc2c1)N1CCCC1 [6i]	18.5 ± 4.3%
Cc1nc2ccc(NC(=O)N3CCC(Cc4ccccc4)CC3)cc2nc1C [6j]	8.9 ± 5.1%
Cc1nc2ccc(NC(=O)N3CCCCC3)cc2nc1C [6l]	Inactive
O=C(Nc1ccc(F)cc1)Nc1ccc2nc(-c3ccco3)c(-c3ccco3)nc2c1 [7a]	Inactive
O=C(Nc1ccc(Cl)cc1)Nc1ccc2nc(-c3ccco3)c(-c3ccco3)nc2c1 [7b]	55.8 ± 24.1%
O=C(Nc1ccc(-c2ccccc2)cc1)Nc1ccc2nc(-c3ccco3)c(-c3ccco3)nc2c1 [7d]	Inactive

Each compound was assayed on human colorectal HT-29 tumor cell line (assay: Cell growth inhibition assay (alamar blue)). Details: HT29, 20 μM, 72 h.
Type: cell-based
Protocol: as §1, §2

SMILES	% Growth inhibition at 20 μM
S=C(Nc1ccccc1)Nc1ccc2nc(-c3cccs3)c(-c3cccs3)nc2c1 [6b]	Inactive
S=C(Nc1ccccc1)Nc1ccc2nc(-c3ccccc3)c(-c3ccccc3)nc2c1 [6c]	Inactive
O=[N+]([O-])c1ccc(NC(=S)Nc2ccc3nc(-c4cccs4)c(-c4cccs4)nc3c2)cc1 [6e]	23.9 ± 27.8%
O=[N+]([O-])c1ccc(NC(=S)Nc2ccc3nc(-c4ccccc4)c(-c4ccccc4)nc3c2)cc1 [6f]	81.2 ± 0.7%
Cc1nc2ccc(NC(=O)N3CCCC3)cc2nc1C [6g]	Inactive
O=C(Nc1ccc2nc(-c3ccccc3)c(-c3ccccc3)nc2c1)N1CCCC1 [6i]	Inactive
Cc1nc2ccc(NC(=O)N3CCC(Cc4ccccc4)CC3)cc2nc1C [6j]	16.3 ± 10.1%
Cc1nc2ccc(NC(=O)N3CCCCC3)cc2nc1C [6l]	Inactive
O=C(Nc1ccc(F)cc1)Nc1ccc2nc(-c3ccco3)c(-c3ccco3)nc2c1 [7a]	74.2 ± 5.2%
O=C(Nc1ccc(Cl)cc1)Nc1ccc2nc(-c3ccco3)c(-c3ccco3)nc2c1 [7b]	86.3 ± 7.7%
O=C(Nc1ccc(-c2ccccc2)cc1)Nc1ccc2nc(-c3ccco3)c(-c3ccco3)nc2c1 [7d]	72.4 ± 7.6%

These compounds were tested on human breast MDA-MB-231 tumor cell line (assay: Cell growth inhibition assay (alamar blue)). Details: MDA-MB-231, 20 μM, 72 h.
Type: cell-based
Protocol: as §1, §2

SMILES	% Growth inhibition at 20 μM
S=C(Nc1ccccc1)Nc1ccc2nc(-c3cccs3)c(-c3cccs3)nc2c1 [6b]	Inactive
S=C(Nc1ccccc1)Nc1ccc2nc(-c3ccccc3)c(-c3ccccc3)nc2c1 [6c]	Inactive
O=[N+]([O-])c1ccc(NC(=S)Nc2ccc3nc(-c4cccs4)c(-c4cccs4)nc3c2)cc1 [6e]	53.3 ± 7.2%
O=[N+]([O-])c1ccc(NC(=S)Nc2ccc3nc(-c4ccccc4)c(-c4ccccc4)nc3c2)cc1 [6f]	72.6 ± 0.7%
Cc1nc2ccc(NC(=O)N3CCCC3)cc2nc1C [6g]	Inactive
O=C(Nc1ccc2nc(-c3ccccc3)c(-c3ccccc3)nc2c1)N1CCCC1 [6i]	16.7 ± 3.9%
Cc1nc2ccc(NC(=O)N3CCC(Cc4ccccc4)CC3)cc2nc1C [6j]	12.4 ± 5.0%
Cc1nc2ccc(NC(=O)N3CCCCC3)cc2nc1C [6l]	Inactive
O=C(Nc1ccc(F)cc1)Nc1ccc2nc(-c3ccco3)c(-c3ccco3)nc2c1 [7a]	38.4 ± 2.7%
O=C(Nc1ccc(Cl)cc1)Nc1ccc2nc(-c3ccco3)c(-c3ccco3)nc2c1 [7b]	92.5 ± 6.6%
O=C(Nc1ccc(-c2ccccc2)cc1)Nc1ccc2nc(-c3ccco3)c(-c3ccco3)nc2c1 [7d]	50.2 ± 8.9%

What follows are compounds tested on human osteosarcoma U2OS tumor cell line (assay: Cell growth inhibition assay (alamar blue)). Details: 72 h.
Type: cell-based
Protocol: as §1, §2

SMILES	% Growth inhibition at 20 μM
S=C(Nc1ccccc1)Nc1ccc2nc(-c3cccs3)c(-c3cccs3)nc2c1 [6b]	Inactive
S=C(Nc1ccccc1)Nc1ccc2nc(-c3ccccc3)c(-c3ccccc3)nc2c1 [6c]	Inactive
O=[N+]([O-])c1ccc(NC(=S)Nc2ccc3nc(-c4cccs4)c(-c4cccs4)nc3c2)cc1 [6e]	50.6 ± 3.9%
O=[N+]([O-])c1ccc(NC(=S)Nc2ccc3nc(-c4ccccc4)c(-c4ccccc4)nc3c2)cc1 [6f]	76.1 ± 0.4%
Cc1nc2ccc(NC(=O)N3CCCC3)cc2nc1C [6g]	Inactive
O=C(Nc1ccc2nc(-c3ccccc3)c(-c3ccccc3)nc2c1)N1CCCC1 [6i]	54.2 ± 2.2%
Cc1nc2ccc(NC(=O)N3CCC(Cc4ccccc4)CC3)cc2nc1C [6j]	33.5 ± 0.4%
Cc1nc2ccc(NC(=O)N3CCCCC3)cc2nc1C [6l]	Inactive
O=C(Nc1ccc(F)cc1)Nc1ccc2nc(-c3ccco3)c(-c3ccco3)nc2c1 [7a]	55.6 ± 6.6%
O=C(Nc1ccc(Cl)cc1)Nc1ccc2nc(-c3ccco3)c(-c3ccco3)nc2c1 [7b]	87.4 ± 1.1%
O=C(Nc1ccc(-c2ccccc2)cc1)Nc1ccc2nc(-c3ccco3)c(-c3ccco3)nc2c1 [7d]	46.9 ± 7.4%

These compounds were tested on human lung A549 tumor cell line (assay: Cell growth inhibition assay (alamar blue)). Details: A549, 20 μM, 72 h.
Type: cell-based
Protocol: as §1, §2

SMILES	% Growth inhibition at 20 μM
S=C(Nc1ccccc1)Nc1ccc2nc(-c3cccs3)c(-c3cccs3)nc2c1 [6b]	Inactive
S=C(Nc1ccccc1)Nc1ccc2nc(-c3ccccc3)c(-c3ccccc3)nc2c1 [6c]	Inactive
O=[N+]([O-])c1ccc(NC(=S)Nc2ccc3nc(-c4cccs4)c(-c4cccs4)nc3c2)cc1 [6e]	Inactive
O=[N+]([O-])c1ccc(NC(=S)Nc2ccc3nc(-c4ccccc4)c(-c4ccccc4)nc3c2)cc1 [6f]	16.6 ± 11.2%
Cc1nc2ccc(NC(=O)N3CCCC3)cc2nc1C [6g]	Inactive
O=C(Nc1ccc2nc(-c3ccccc3)c(-c3ccccc3)nc2c1)N1CCCC1 [6i]	11.0 ± 1.3%
Cc1nc2ccc(NC(=O)N3CCC(Cc4ccccc4)CC3)cc2nc1C [6j]	40.3 ± 1.9%
Cc1nc2ccc(NC(=O)N3CCCCC3)cc2nc1C [6l]	Inactive
O=C(Nc1ccc(F)cc1)Nc1ccc2nc(-c3ccco3)c(-c3ccco3)nc2c1 [7a]	>100%
O=C(Nc1ccc(Cl)cc1)Nc1ccc2nc(-c3ccco3)c(-c3ccco3)nc2c1 [7b]	99.2 ± 5.2%
O=C(Nc1ccc(-c2ccccc2)cc1)Nc1ccc2nc(-c3ccco3)c(-c3ccco3)nc2c1 [7d]	13.8 ± 9.8%

These compounds were tested on human prostate PC3 tumor cell line (assay: Cell growth inhibition assay (alamar blue)). Details: PC3, 20 μM, 72 h.
Type: cell-based
Protocol: as §1, §2

SMILES	% Growth inhibition at 20 μM
S=C(Nc1ccccc1)Nc1ccc2nc(-c3cccs3)c(-c3cccs3)nc2c1 [6b]	Inactive
S=C(Nc1ccccc1)Nc1ccc2nc(-c3ccccc3)c(-c3ccccc3)nc2c1 [6c]	Inactive
O=[N+]([O-])c1ccc(NC(=S)Nc2ccc3nc(-c4cccs4)c(-c4cccs4)nc3c2)cc1 [6e]	19.5 ± 37.4%
O=[N+]([O-])c1ccc(NC(=S)Nc2ccc3nc(-c4ccccc4)c(-c4ccccc4)nc3c2)cc1 [6f]	81.0 ± 8.5%
Cc1nc2ccc(NC(=O)N3CCCC3)cc2nc1C [6g]	Inactive
O=C(Nc1ccc2nc(-c3ccccc3)c(-c3ccccc3)nc2c1)N1CCCC1 [6i]	56.9 ± 2.7%
Cc1nc2ccc(NC(=O)N3CCC(Cc4ccccc4)CC3)cc2nc1C [6j]	30.6 ± 11.6%
Cc1nc2ccc(NC(=O)N3CCCCC3)cc2nc1C [6l]	Inactive
O=C(Nc1ccc(F)cc1)Nc1ccc2nc(-c3ccco3)c(-c3ccco3)nc2c1 [7a]	90.7 ± 4.1%
O=C(Nc1ccc(Cl)cc1)Nc1ccc2nc(-c3ccco3)c(-c3ccco3)nc2c1 [7b]	86.4 ± 1.1%
O=C(Nc1ccc(-c2ccccc2)cc1)Nc1ccc2nc(-c3ccco3)c(-c3ccco3)nc2c1 [7d]	88.5 ± 1.9%
